Experiment [1] has as its target MEK1 kinase (Homo sapiens (Human), UniProt Q02750). Put plainly: MEK1 kinase enzymatic activity assay (Kinase Glo plus luminescence). The format is biochemical. The settings on record: 60 minutes at 22 degree. As for the experimental part: The Kinase Glo plus assay kit was purchased from Promega. The substrate, APT, DTT, and dimethylsulfoxide were purchased from Sigma-Aldrich.
The MAP2K1 (MEK1) kinase, Europium labeled Antibody, Tracer 236 and binding buffer A were purchased from Invitrogen.
Determination of Enzymatic Activity:
Compounds were diluted from DMSO stocks into 1× buffer (20 mM MOPS, PH 7.4, 5 mM MgCl2, 0.5 mM MnCl2, 100 uM Sodium Orthovanadate, 0.01% Triton X-100, 1 mM DTT). A typical reaction assay contained 0.01 nanomoles MEK1 kinase, 0.01 nanomoles ATP, 10 nanograms substrate. The screening assay essentially comprised four additions. 2 ul of diluted compounds were dispensed to 384 well white assay plates. 6 ul of kinase-substrate cocktail was then added to each well. 2 ul 5×ATP was subsequently added to each well to start the reaction. A top seal was applied and the plate was incubated at 22 degree avoiding light for 60 minutes. Finally, 10 ul of the Kinase Glo plus reagent was added to each well to stop the reaction. Incubated at room temperature and avoid light for ten minutes. The top seal was removed and the plate was counted by the EnVision 2104 multi labeled plate reader (PerkinElmer) with a standard luminescent program.

The subject of experiment [2] is phosphorylated ERK in Human A375 melanoma cancer cells. Put plainly: AlphaScreen assay for phosphorylated ERK in A375 cells. The settings on record: A-375, 1 h, compound treatment 60 minutes at 37 degree, phospho-ERK, read-out: IC50 (nM) Cell based. As for the experimental part:
The SureFire Phospho-ERK1/2 Assay kit and the AlphaScreen General IgG (Protein A) Detection kit were both purchased from PerkinElmer.
Generation of Cell Based IC50 Data • Effects of compounds in the cell were determined by the AlphaScreen assay for phosphorylated ERK. Human A375 melanoma cancer cells were plated in a 96 wells plate at 80,000 cells per well and grown in a 37 degree humidified CO2 incubator. The following day, cells were treated with a range of compound concentrations for 60 minutes at 37 degree. The cells were then lysed and 4 ul of each lysate were transferred into the 384 well white reaction plate. A cocktail of AlphaScreen beads and buffer was freshly prepared and this mixture was dispensed into each well in a room with low light. A top seal was applied and the plate was incubated at 25 degree avoiding light for two hours. The top seal was removed when the plate was counted by the EnVision multi labeled plate reader (PerkinElmer) with an optimized AlphaScreen program. […] Biological Data for Select Compounds

Where only a bound is given, the exact number is not on record here.

Chain of MEK1 kinase (Q02750 whole entry): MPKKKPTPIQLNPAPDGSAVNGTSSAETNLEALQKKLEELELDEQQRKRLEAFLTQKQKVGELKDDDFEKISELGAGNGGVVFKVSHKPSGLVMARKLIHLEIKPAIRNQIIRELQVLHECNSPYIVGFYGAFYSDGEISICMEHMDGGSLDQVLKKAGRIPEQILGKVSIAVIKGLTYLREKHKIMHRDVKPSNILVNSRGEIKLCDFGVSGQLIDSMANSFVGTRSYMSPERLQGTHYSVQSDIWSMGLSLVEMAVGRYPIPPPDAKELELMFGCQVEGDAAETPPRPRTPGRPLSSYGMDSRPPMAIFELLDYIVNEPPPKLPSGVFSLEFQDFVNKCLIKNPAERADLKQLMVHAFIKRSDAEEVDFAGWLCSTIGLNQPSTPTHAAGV

On to `C[C@@H](CO)ONC(=O)c1c(Nc2ccc(I)cc2F)n(C)c(=O)c2ccoc12`, for which the IC50 in experiment [1] and in experiment [2] was < 100 nM in each case.

As for `COCCONC(=O)c1c(Nc2ccc(I)cc2F)n(C)c(=O)c2ccoc12`, the IC50 was < 500 nM in experiment [1] and < 100 nM in experiment [2].

In the case of `Cn1c(Nc2ccc(I)cc2Cl)c(C(=O)NCCCO)c2occc2c1=O`, the IC50 in experiment [1] was < 10000 nM; in experiment [2], < 100 nM.

In the case of `Cn1c(Nc2ccc(I)cc2F)c(C(=O)N2CC(O)(C3CCCCN3)C2)c2occc2c1=O` (stereo not shown), the IC50 in experiment [1] is < 1000 nM; in experiment [2], < 100 nM.

Turning to `Cn1c(Nc2ccc(I)cc2F)c(C(=O)NCC(O)CO)c2occc2c1=O` (stereo not shown), the IC50 in experiment [1] was < 1000 nM; in experiment [2], < 100 nM.

Turning to `Cc1noc2c(C(=O)NOCCO)c(Nc3ccc(I)cc3F)n(C)c(=O)c12`, the IC50 in experiment [1] is < 10000 nM; in experiment [2], < 100 nM.

Consider `C[C@H](O)CONC(=O)c1c(Nc2ccc(I)cc2F)n(C)c(=O)c2ccoc12`, for which the IC50 in experiment [1] and in experiment [2] was < 100 nM each time.

`Cn1c(Nc2ccc(I)cc2F)c(C(=O)NOCCO)c2ncsc2c1=O`: the IC50 in experiment [1] was < 1000 nM; in experiment [2], < 100 nM.

Regarding `CCONC(=O)c1c(Nc2ccc(I)cc2F)n(C)c(=O)c2ccoc12`, the results for the IC50 in experiment [1] and in experiment [2] were < 500 nM and < 100 nM, respectively.

For `Cn1c(Nc2ccc(I)cc2F)c(C(=O)NOCCO)c2sccc2c1=O`, the figures for the IC50 in experiment [1] and in experiment [2] were < 500 nM and < 100 nM, respectively.

Turning to `Cc1nc2c(C(=O)NOCCO)c(Nc3ccc(I)cc3F)n(C)c(=O)c2s1`, the values for the IC50 in experiment [1] and in experiment [2] were < 500 nM and < 100 nM, respectively.

With `CSc1nc2c(C(=O)NOCCO)c(Nc3ccc(I)cc3F)n(C)c(=O)c2s1`, the IC50 in experiment [1] was < 500 nM; in experiment [2] it was < 100 nM.

`Cc1coc2c(C(=O)NOCCO)c(Nc3ccc(I)cc3Cl)n(C)c(=O)c12`: the values for the IC50 in experiment [1] and in experiment [2] were < 500 nM and < 100 nM, respectively.

`CSc1ccc(Nc2c(C(=O)NOCCO)c3occc3c(=O)n2C)c(F)c1`: the half-maximal inhibitory concentration (IC50) was < 500 nM in experiment [1] and < 100 nM in experiment [2].

For the compound `CC[C@H](O)CONC(=O)c1c(Nc2ccc(I)cc2F)n(C)c(=O)c2ccoc12`, the half-inhibitory concentration (IC50) in experiment [1] and in experiment [2] was < 100 nM in each case.

Turning to `CONC(=O)c1c(Nc2ccc(I)cc2F)n(C)c(=O)c2ccoc12`, the concentration for half-maximal inhibition (IC50) in experiment [1] was < 500 nM; in experiment [2] it was < 100 nM.

On to `CSc1nc2c(C(=O)NOCCO)c(Nc3ccc(I)cc3Cl)n(C)c(=O)c2s1`, for which the IC50 in experiment [1] and in experiment [2] was < 100 nM throughout.

Regarding `Cn1c(Nc2ccc(I)cc2F)c(C(=O)NCCCO)c2occc2c1=O`, the IC50 is < 10000 nM in experiment [1] and < 100 nM in experiment [2].

For `Cn1c(Nc2ccc(Cl)cc2Cl)c(C(=O)NOCCO)c2occc2c1=O`, the half-maximal inhibitory concentration (IC50) in experiment [1] is < 10000 nM; in experiment [2] it was < 1000 nM.

For the compound `CN(C)Cc1cc2c(=O)n(C)c(Nc3ccc(I)cc3F)c(C(=O)NOCCO)c2o1`, the half-inhibitory concentration (IC50) is < 500 nM in experiment [1] and < 100 nM in experiment [2].

Regarding `Cn1c(Nc2ccc(I)cc2F)c(C(=O)NOCCO)c2occc2c1=O`, the IC50 in experiment [1] and in experiment [2] was < 100 nM in each case.

For the compound `CNc1nc2c(C(=O)NOCCO)c(Nc3ccc(I)cc3F)n(C)c(=O)c2s1`, the results for the IC50 in experiment [1] and in experiment [2] were < 500 nM and < 100 nM, respectively.

For the compound `Cc1nc2c(=O)n(C)c(Nc3ccc(I)cc3F)c(C(=O)NOCCO)c2o1`, the values for the 50% inhibitory concentration (IC50) in experiment [1] and in experiment [2] were < 1000 nM and < 100 nM, respectively.

In the case of `Cn1c(Nc2ccc(I)cc2Cl)c(C(=O)NOCCO)c2occc2c1=O`, the IC50 in experiment [1] and in experiment [2] was < 100 nM throughout.

Consider `Cc1cc2c(=O)n(C)c(Nc3ccc(I)cc3F)c(C(=O)NOCCO)c2o1`, for which the half-maximal inhibitory concentration (IC50) in experiment [1] is < 500 nM; in experiment [2] it was < 100 nM.

For `Cc1coc2c(C(=O)NOCCO)c(Nc3ccc(I)cc3F)n(C)c(=O)c12`, the values for the IC50 in experiment [1] and in experiment [2] were < 500 nM and < 100 nM, respectively.

Turning to `Cn1c(Nc2ccc(I)cc2F)c(C(=O)NOC[C@H](O)CO)c2occc2c1=O`, the IC50 in experiment [1] and in experiment [2] was < 100 nM in each case.

Regarding `Cn1c(Nc2ccc(I)cc2F)c(C(=O)NOCCO)c2nc(N)sc2c1=O`, the figures for the half-maximal inhibitory concentration (IC50) in experiment [1] and in experiment [2] were < 500 nM and < 100 nM, respectively.

Take `Cn1c(Nc2ccc(I)cc2F)c(C(=O)NOCCO)c2oc(CN3CCOCC3)cc2c1=O`: the IC50 is < 500 nM in experiment [1] and < 100 nM in experiment [2].

As to `Cn1c(Nc2ccc(I)cc2F)c(C(=O)NC(=O)CO)c2occc2c1=O`, the IC50 in experiment [1] was < 10000 nM; in experiment [2] it was < 500 nM.

On to `CSc1ccc(Nc2c(C(=O)NOCCO)c3occc3c(=O)n2C)c(Cl)c1`, for which the values for the 50% inhibitory concentration (IC50) in experiment [1] and in experiment [2] were < 1000 nM and < 100 nM, respectively.

On to `Cn1c(Nc2ccc(I)cc2F)c(C(=O)NOCCO)c2scnc2c1=O`, for which the IC50 in experiment [1] and in experiment [2] was < 10000 nM each time.

For `Cn1c(Nc2ccc(I)cc2F)c(C(=O)NOC(C)(C)CO)c2occc2c1=O`, the IC50 in experiment [1] and in experiment [2] was < 100 nM each time.

With `Cn1c(Nc2ccc(I)cc2F)c(C(=O)NOCC2CC2)c2occc2c1=O`, the concentration for half-maximal inhibition (IC50) in experiment [1] and in experiment [2] was < 100 nM throughout.

For the compound `Cn1c(Nc2ccc(I)cc2F)c(C(N)=O)c2occc2c1=O`, the results for the concentration for half-maximal inhibition (IC50) in experiment [1] and in experiment [2] were < 1000 nM and < 100 nM, respectively.

For the compound `Cn1c(Nc2ccc(Br)cc2F)c(C(=O)NOCCO)c2occc2c1=O`, the half-maximal inhibitory concentration (IC50) in experiment [1] was < 10000 nM; in experiment [2] it was < 100 nM.

In the case of `Cn1c(Nc2ccc(Br)cc2Cl)c(C(=O)NOCCO)c2occc2c1=O`, the concentration for half-maximal inhibition (IC50) is < 1000 nM in experiment [1] and < 100 nM in experiment [2].

For `Cc1cc2c(=O)n(C)c(Nc3ccc(I)cc3F)c(C(=O)NOC[C@H](O)CO)c2o1`, the IC50 in experiment [1] was < 500 nM; in experiment [2], < 100 nM.
